The values below come from patent US4016259A, “Contraceptive polypeptides” (Research Corporation, priority 1975, dated 1977).

One test relates to hamsters. The experiment in a line: Control of pregnancy in hamsters, compound in phosphate buffer pH 7.1 subcutaneously or orally. In kind it is in vivo, hamster.
The next test relates to Hamster. Briefly: Female Anti-Fertility test (Table I), implants counted at autopsy. Format: in vivo. Particulars: subc., saline, days (-4)-(-1), autopsy day 10. As for the experimental part: In one study carried out with hamsters Thr-Pro-Arg-Lys as the diacetate was administered subcutaneously in isotonic solution at dosage levels of 2, […], once daily starting on the day of postovulatory discharge (-4) prior to mating. Treatment was continued until the fourth day after ovulation. The animals were mated and then sacrificed on the tenth day. The uterus was opened, and the number of implants counted.
TEST Female Anti-Fertility
ROUTE OF ADMINISTRATION Subc.
Once daily for four days, starting on the day
of postovulatory discharge, prior to mating.

Peptide text beside a SMILES is read from it.

As to `C[C@@H](O)[C@H](N)C(=O)N1CCC[C@H]1C(=O)N[C@@H](CCCNC(=N)N)C(=O)N[C@@H](CCCCN)C(=O)O` [Thr-Pro-Arg-Lys, threonyl-prolyl-arginyl-lysine] (H-TPRK-OH), in the test on hamsters (administered orally at 35 to 50 μg/100 gm/day), the number of pregnancies entry is recorded as “reduced to zero”. Besides, in the test on hamsters (subcutaneous, phosphate buffer pH 7.1, at 0.7 mcg/gm/day), the “number of implantations per animal” value is “less than one”. Further, the “effective dose (number of implantations per animal reduced to less than one)” value in the test on hamsters (subcutaneous, phosphate buffer pH 7.1, calculated as free base) is given as 0.7 mcg/gm/day. The “Average No. of Implants” value was found to be 0.5 with Hamster (daily dose 2.0 μg/100 mg), 4.6 with Hamster (daily dose 10.0 μg/100 mg) and 5.9 in the test on Hamster (daily dose 100.0 μg/100 mg). For the same compound, the figures for the “Total No. of Normal Fetuses” value with Hamster (daily dose 2.0 μg/100 mg), with Hamster (daily dose 10.0 μg/100 mg) and with Hamster (daily dose 100.0 μg/100 mg) were 5, 46 and 53, respectively. Moreover, the “Total No. of Resorbing Fetuses” value with Hamster (daily dose 2.0 μg/100 mg) amounted to 0; in the test on Hamster (daily dose 10.0 μg/100 mg) it was 3; in the test on Hamster (daily dose 100.0 μg/100 mg) it was 1. In addition, the “No. of Animals with Implantations” value is recorded as 1 in the test with Hamster (daily dose 2.0 μg/100 mg, 10/10 sperm +); 4 in the test with Hamster (daily dose 10.0 μg/100 mg, 10/10 sperm +); 4 in the test with Hamster (daily dose 100.0 μg/100 mg, 9/10 sperm +).
